Measurements taken from patent US12540197B2, “Anti-tissue factor antibodies and antibody conjugates, compositions comprising anti-tissue factor antibodies or antibody conjugates, and methods of making and using anti-tissue factor antibodies and antibody conjugates” (SUTRO BIOPHARMA, INC., priority 2023, dated 2026).

Test system: BxPC3 cells
Assay: Secondary ADC cell killing assay (antibody + anti-human Fc nanobody conjugated to SC236) on BxPC3
Assay type: cell-based
Conditions: Table 15, scFv-Fc from SRP2842; nanobody-SC236 20 nM, 120 hrs
Protocol: The internalization ability of the lead antibodies was evaluated by an ADC cell killing assay on Tissue Factor positive BxPC3 cells. A total of 625 cells in a volume of 25 μL were seeded in each well of a 384-well flat bottom white polystyrene plate. Lead antibodies were formulated at 4-fold starting concentration in the cell culture medium and filtered through MultiScreenHTS 96-Well Filter Plates (Millipore; Billerica, Massachusetts). 12.5 μL of antibody was added into each treatment well, and 12.5 μL of anti-human Fc nanobody conjugated to SC236 was then added into each well at a fixed final concentration of 20 nM. Assay plates were cultured at 37° C. in a CO2 incubator for 120 hrs before assay. For cell viability measurement, 30 μL of Cell Titer-Glo® reagent (Promega Corp. Madison, WI) was added into each well, and plates were processed as per product instructions. Relative luminescence was measured on an ENVISION® plate reader (Perkin-Elmer; Waltham, MA). Relative luminescence readings were converted to percent viability using untreated cells as controls. Data was fitted with non-linear regression analysis, using a log (inhibitor) vs. response-variable slope, 4 parameter fit with GraphPad Prism (GraphPad v 5.0, Software; San Diego, California).

Substance: Tisotumab
- BxPC3 Cell Killing Span (%): 94.7%
- EC50: 0.023 nM
